≈ marks a conversion by molar mass, not a printed value.
Experiments:
Escherichia coli = assay: in vitro antibacterial evaluation, MIC by broth dilution; format: cell-based; conditions: 18 hours at 35° C.
Outline: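 Broth dilution MIC per NCCLS M7-A2 in Mueller-Hinton II medium, inoculum 5×10^5 CFU/mL, antibiotic range 64-0.06 μg/mL. MIC taken as lowest concentration inhibiting growth.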

[1] = anatomic pathology (histopathology of heart and kidney) in mice; format: in vivo; conditions: CD-1 mice, 20 mg/kg intravenously daily for 9 days, necropsy day 10, microscopic histopathology
Description: Samples of tissues from necropsied mice were formalin-fixed, paraffin-embedded, sectioned, stained with hematoxylin and eosin, and examined microscopically. Histopathologic findings were recorded. These findings were subjectively graded on a scale corresponding to slight, mild, moderate, marked and severe as compared to untreated controls.

Streptococcus sp. = assay: in vitro antibacterial evaluation, MIC by broth dilution; format: cell-based; conditions: broth dilution, 18 hours at 35° C.
Outline: (§1)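 MIC = lowest antibiotic concentration preventing visible growth; inoculum 5×10^5 CFU/mL; drug range 64-0.06 μg/mL; Muller-Hinton II […]; NCCLS M7-A2 guidance.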

Staphylococcus sp. = assay: as above; format: cell-based; conditions: broth dilution, 18 hours at 35° C.; for MIC Staphylococcus aureus (ATCC 29213): strain ATCC 29213; for MIC Staphylococcus aureus (GC 1131): strain GC 1131; for MIC Staphylococcus aureus (GC 3051): strain GC 3051; for MIC Staphylococcus aureus (GC 3053): strain GC 3053; for MIC Staphylococcus aureus (GC 4541): strain GC 4541; for MIC Staphylococcus aureus (GC 4542): strain GC 4542; for MIC Staphylococcus aureus-SMITH (GC 4543): strain GC 4543; for MIC Staphylococcus aureus (GC 4544): strain GC 4544; for MIC Staphylococcus aureus (GC 4545): strain GC 4545; for MIC Staphylococcus haemolyticus (GC 4546): strain GC 4546; for MIC Coagulase Negative Staphylococcus (GC 4547): strain GC 4547; for MIC Coagulase Negative Staphylococcus (GC 4548): strain GC 4548; for MIC Coagulase Negative Staphylococcus (GC 4549): strain GC 4549; for MIC Coagulase Negative Staphylococcus (GC 4551): strain GC 4551
Outline: as §1

Enterococcus sp. = assay: as above; format: cell-based; conditions: broth dilution, 18 hours at 35° C.
Outline: as §1

[2] = Enterococcus faecalis (ATCC 29212)
[3] = Enterococcus faecalis (GC 4552)
[4] = Enterococcus faecalis (GC 4553)
[5] = Enterococcus faecalis (GC 4554)
[6] = Enterococcus faecalis (GC 6189)

CC(c1ccccc1)C1NC(=O)CNC(=O)C(CO)NC(=O)C(C(O)C2CN(Cc3ccc(-c4ccccc4)cc3)C(=N)N2C2OC(CO)C(O)C(O)C2O)NC(=O)C(C(O)C2CNC(=N)N2)NC(=O)C(Cc2ccc(OC3OC(CO)C(OC4OC(CO)C(O)C(O)C4O)C(O)C3O)cc2)NC1=O (centres unmarked) [Example 66a]
MIC Escherichia coli (ATCC 25922) (Escherichia coli): >128 µg/mL | MIC Escherichia coli (GC 4559) (Escherichia coli): >128 µg/mL | MIC Escherichia coli (GC 4560) (Escherichia coli): 8 µg/mL (≈ 5.47 µM) | Anatomical Pathology (Day 10), Heart [1]: 0 | Anatomical Pathology (Day 10), Kidney [1]: ++ | MIC Streptococcus agalactiae (GC 4564) (Streptococcus sp.): >128 µg/mL | MIC Streptococcus pneumoniae (ATCC 6301) (Streptococcus sp.): >128 µg/mL | MIC Streptococcus pneumoniae (GC 1894) (Streptococcus sp.): >128 µg/mL | MIC Streptococcus pneumoniae (GC 4565) (Streptococcus sp.): >128 µg/mL | MIC Streptococcus pyogenes (GC 4563) (Streptococcus sp.): >128 µg/mL | MIC Streptococcus pneumoniae (ATCC 6301) (Streptococcus sp.; strain ATCC 6301): >128 µg/mL | MIC Streptococcus pneumoniae (GC 1894) (Streptococcus sp.; strain GC 1894): >128 µg/mL | MIC Streptococcus pyogenes (GC 4563) (Streptococcus sp.; strain GC 4563): >128 µg/mL | MIC Streptococcus agalactiae (GC 4564) (Streptococcus sp.; strain GC 4564): >128 µg/mL | MIC Streptococcus pneumoniae (GC 4565) (Streptococcus sp.; strain GC 4565): >128 µg/mL | MIC Staphylococcus aureus (ATCC 29213) (Staphylococcus sp.): >128 µg/mL | MIC Staphylococcus aureus (GC 1131) (Staphylococcus sp.): >128 µg/mL | MIC Staphylococcus aureus (GC 3051) (Staphylococcus sp.): >128 µg/mL | MIC Staphylococcus aureus (GC 3053) (Staphylococcus sp.): >128 µg/mL | MIC Staphylococcus aureus (GC 4541) (Staphylococcus sp.): >128 µg/mL | MIC Staphylococcus aureus (GC 4542) (Staphylococcus sp.): >128 µg/mL | MIC Staphylococcus aureus-SMITH (GC 4543) (Staphylococcus sp.): >128 µg/mL | MIC Staphylococcus aureus (GC 4544) (Staphylococcus sp.): >128 µg/mL | MIC Staphylococcus aureus (GC 4545) (Staphylococcus sp.): >128 µg/mL | MIC Staphylococcus haemolyticus (GC 4546) (Staphylococcus sp.): >128 µg/mL | MIC Coagulase Negative Staphylococcus (GC 4547) (Staphylococcus sp.): >128 µg/mL | MIC Coagulase Negative Staphylococcus (GC 4548) (Staphylococcus sp.): >128 µg/mL | MIC Coagulase Negative Staphylococcus (GC 4549) (Staphylococcus sp.): >128 µg/mL | MIC Coagulase Negative Staphylococcus (GC 4551) (Staphylococcus sp.): >128 µg/mL | MIC Enterococcus avium (GC 4558) (Enterococcus sp.; Enterococcus avium (GC 4558)): 128 µg/mL (≈ 87.6 µM) | MIC Enterococcus faecalis (ATCC 29212) (Enterococcus sp.; [2]): >128 µg/mL | MIC Enterococcus faecalis (GC 4552) (Enterococcus sp.; [3]): >128 µg/mL | MIC Enterococcus faecalis (GC 4553) (Enterococcus sp.; [4]): >128 µg/mL | MIC Enterococcus faecalis (GC 4554) (Enterococcus sp.; [5]): >128 µg/mL | MIC Enterococcus faecalis (GC 6189) (Enterococcus sp.; [6]): >128 µg/mL | MIC Enterococcus faecium (GC 2243) (Enterococcus sp.; Enterococcus faecium (GC 2243)): >128 µg/mL | MIC Enterococcus faecium (GC 4556) (Enterococcus sp.; Enterococcus faecium (GC 4556)): >128 µg/mL | MIC Enterococcus faecium (GC 4557) (Enterococcus sp.; Enterococcus faecium (GC 4557)): >128 µg/mL | MIC Enterococcus avium (GC 4558) (Enterococcus sp.): 128 µg/mL (≈ 87.6 µM) | MIC Enterococcus faecalis (ATCC 29212) (Enterococcus sp.): >128 µg/mL | MIC Enterococcus faecalis (GC 2242) (Enterococcus sp.): >128 µg/mL | MIC Enterococcus faecalis (GC 2691) (Enterococcus sp.): >128 µg/mL | MIC Enterococcus faecalis (GC 3059) (Enterococcus sp.): >128 µg/mL | MIC Enterococcus faecalis (GC 4552) (Enterococcus sp.): >128 µg/mL | MIC Enterococcus faecalis (GC 4553) (Enterococcus sp.): >128 µg/mL | MIC Enterococcus faecalis (GC 4554) (Enterococcus sp.): >128 µg/mL | MIC Enterococcus faecalis (GC 6189) (Enterococcus sp.): >128 µg/mL | MIC Enterococcus faecium (GC 2243) (Enterococcus sp.): >128 µg/mL | MIC Enterococcus faecium (GC 4556) (Enterococcus sp.): >128 µg/mL | MIC Enterococcus faecium (GC 4557) (Enterococcus sp.): >128 µg/mL | MIC Enterococcus faecalis (GC 2242) (Enterococcus sp.; strain GC 2242): >128 µg/mL | MIC Enterococcus faecalis (GC 2691) (Enterococcus sp.; strain GC 2691): >128 µg/mL | MIC Enterococcus faecalis (GC 3059) (Enterococcus sp.; strain GC 3059): >128 µg/mL

CC(c1ccccc1)C1NC(=O)CNC(=O)C(CO)NC(=O)C(C(O)C2CN(Cc3ccc4ccccc4c3)C(=N)N2C2OC(CO)C(O)C(O)C2O)NC(=O)C(C(O)C2CNC(=N)N2)NC(=O)C(Cc2ccc(OC3OC(CO)C(OC4OC(CO)C(O)C(O)C4O)C(O)C3O)cc2)NC1=O (stereo not drawn) [Example 67, Cyclo[glycyl-β-methylphenylalanyl-O-(4-O-hexopyranosylhexoyranosyl)tyrosyl-3-(2-iminoimidazolidin-4-yl)seryl-3-[3-hexopyranosyl-2-imino-1-(2-naphthylmethyl)-imidazolidin-4-yl]-serylseryl]]
MIC Escherichia coli (ATCC 25922) (Escherichia coli): >128 µg/mL | MIC Escherichia coli (GC 4559) (Escherichia coli): >128 µg/mL | MIC Escherichia coli (GC 4560) (Escherichia coli): 32 µg/mL (≈ 22.3 µM) | Anatomical Pathology (Day 10), Heart [1]: 0 | Anatomical Pathology (Day 10), Kidney [1]: 0 | MIC Streptococcus agalactiae (GC 4564) (Streptococcus sp.): 128 µg/mL (≈ 89.2 µM) | MIC Streptococcus pneumoniae (ATCC 6301) (Streptococcus sp.): 128 µg/mL (≈ 89.2 µM) | MIC Streptococcus pneumoniae (GC 1894) (Streptococcus sp.): 64 µg/mL (≈ 44.6 µM) | MIC Streptococcus pneumoniae (GC 4565) (Streptococcus sp.): 128 µg/mL (≈ 89.2 µM) | MIC Streptococcus pyogenes (GC 4563) (Streptococcus sp.): 128 µg/mL (≈ 89.2 µM) | MIC Streptococcus pneumoniae (ATCC 6301) (Streptococcus sp.; strain ATCC 6301): 128 µg/mL (≈ 89.2 µM) | MIC Streptococcus pneumoniae (GC 1894) (Streptococcus sp.; strain GC 1894): 64 µg/mL (≈ 44.6 µM) | MIC Streptococcus pyogenes (GC 4563) (Streptococcus sp.; strain GC 4563): 128 µg/mL (≈ 89.2 µM) | MIC Streptococcus agalactiae (GC 4564) (Streptococcus sp.; strain GC 4564): 128 µg/mL (≈ 89.2 µM) | MIC Streptococcus pneumoniae (GC 4565) (Streptococcus sp.; strain GC 4565): 128 µg/mL (≈ 89.2 µM) | MIC Staphylococcus aureus (ATCC 29213) (Staphylococcus sp.): >128 µg/mL | MIC Staphylococcus aureus (GC 1131) (Staphylococcus sp.): >128 µg/mL | MIC Staphylococcus aureus (GC 3051) (Staphylococcus sp.): >128 µg/mL | MIC Staphylococcus aureus (GC 3053) (Staphylococcus sp.): >128 µg/mL | MIC Staphylococcus aureus (GC 4541) (Staphylococcus sp.): >128 µg/mL | MIC Staphylococcus aureus (GC 4542) (Staphylococcus sp.): >128 µg/mL | MIC Staphylococcus aureus-SMITH (GC 4543) (Staphylococcus sp.): >128 µg/mL | MIC Staphylococcus aureus (GC 4544) (Staphylococcus sp.): >128 µg/mL | MIC Staphylococcus aureus (GC 4545) (Staphylococcus sp.): >128 µg/mL | MIC Staphylococcus haemolyticus (GC 4546) (Staphylococcus sp.): >128 µg/mL | MIC Coagulase Negative Staphylococcus (GC 4547) (Staphylococcus sp.): 128 µg/mL (≈ 89.2 µM) | MIC Coagulase Negative Staphylococcus (GC 4548) (Staphylococcus sp.): >128 µg/mL | MIC Coagulase Negative Staphylococcus (GC 4549) (Staphylococcus sp.): >128 µg/mL | MIC Coagulase Negative Staphylococcus (GC 4551) (Staphylococcus sp.): >128 µg/mL | MIC Coagulase Negative Staphylococcus (GC 6257) (Staphylococcus sp.; strain GC 6257): >128 µg/mL | MIC Enterococcus avium (GC 4558) (Enterococcus sp.; Enterococcus avium (GC 4558)): 64 µg/mL (≈ 44.6 µM) | MIC Enterococcus faecalis (ATCC 29212) (Enterococcus sp.; [2]): 128 µg/mL (≈ 89.2 µM) | MIC Enterococcus faecalis (GC 4552) (Enterococcus sp.; [3]): 128 µg/mL (≈ 89.2 µM) | MIC Enterococcus faecalis (GC 4553) (Enterococcus sp.; [4]): 128 µg/mL (≈ 89.2 µM) | MIC Enterococcus faecalis (GC 4554) (Enterococcus sp.; [5]): >128 µg/mL | MIC Enterococcus faecalis (GC 6189) (Enterococcus sp.; [6]): 128 µg/mL (≈ 89.2 µM) | MIC Enterococcus faecium (GC 2243) (Enterococcus sp.; Enterococcus faecium (GC 2243)): >128 µg/mL | MIC Enterococcus faecium (GC 4556) (Enterococcus sp.; Enterococcus faecium (GC 4556)): >128 µg/mL | MIC Enterococcus faecium (GC 4557) (Enterococcus sp.; Enterococcus faecium (GC 4557)): 128 µg/mL (≈ 89.2 µM) | MIC Enterococcus avium (GC 4558) (Enterococcus sp.): 64 µg/mL (≈ 44.6 µM) | MIC Enterococcus faecalis (ATCC 29212) (Enterococcus sp.): 128 µg/mL (≈ 89.2 µM) | MIC Enterococcus faecalis (GC 2242) (Enterococcus sp.): 128 µg/mL (≈ 89.2 µM) | MIC Enterococcus faecalis (GC 2691) (Enterococcus sp.): 128 µg/mL (≈ 89.2 µM) | MIC Enterococcus faecalis (GC 3059) (Enterococcus sp.): 128 µg/mL (≈ 89.2 µM) | MIC Enterococcus faecalis (GC 4552) (Enterococcus sp.): 128 µg/mL (≈ 89.2 µM) | MIC Enterococcus faecalis (GC 4553) (Enterococcus sp.): 128 µg/mL (≈ 89.2 µM) | MIC Enterococcus faecalis (GC 4554) (Enterococcus sp.): >128 µg/mL | MIC Enterococcus faecalis (GC 6189) (Enterococcus sp.): 128 µg/mL (≈ 89.2 µM) | MIC Enterococcus faecium (GC 2243) (Enterococcus sp.): >128 µg/mL | MIC Enterococcus faecium (GC 4556) (Enterococcus sp.): >128 µg/mL | MIC Enterococcus faecium (GC 4557) (Enterococcus sp.): 128 µg/mL (≈ 89.2 µM) | MIC Enterococcus faecalis (GC 2242) (Enterococcus sp.; strain GC 2242): 128 µg/mL (≈ 89.2 µM) | MIC Enterococcus faecalis (GC 2691) (Enterococcus sp.; strain GC 2691): 128 µg/mL (≈ 89.2 µM) | MIC Enterococcus faecalis (GC 3059) (Enterococcus sp.; strain GC 3059): 128 µg/mL (≈ 89.2 µM)
